Assay [1] has as its target T1, Recombinant human integrin αVβ6 (Homo sapiens, UniProt P06756+P18564).
T1 construct: purchased R&D Systems 3817-AV
Nature of the assay: Solid Phase Receptor Assay (SPRA) for αVβ6 function. It counts as binding. As to conditions: plate-bound human LAP. Here is the method:
E. Solid Phase Receptor Assay (SPRA) for αVβ6 Function
Wells were washed 3 times with 150 μL TBS+, and then 150 μL of blocking buffer (TBS+ with 1% bovine serum albumin, Sigma A7906) was added. The plate was incubated for 1 hr at 37° C., and then washed 3× with TBS+ buffer. […] Compounds were diluted to 20 μM and then 1 μL was added to each well of the plate according to a standard template with each sample repeated in triplicate. After incubation for two hours at room temperature, the plate was washed 3× with 150 μL of TBS+ buffer. To each well, 50 μL of biotinylated anti-αV antibody (R&D Systems, BAF1219) at 0.5 μg/mL in TBS+/0.1% BSA were added and the plate was covered and incubated for 1 hr at room temperature. After washing the plate 3× with 150 μL of TBS+ buffer, 50 μL of streptavidin-conjugated horseradish peroxidase (R&D Systems, DY998) diluted in TBS+ blocking buffer were added to the wells and the plate incubated for 20 min at room temperature. The plate was washed 3× with TBS+ buffer followed by 50 μL of TMB substrate (Sigma T4444) added to each well in the dark and the plate incubated for 10 min at room temperature. 25 μL of 1.0 M phosphoric acid was added as a stop solution and the plates were read at 450 nm using a Spectramax plate reader.

The target of assay [2] is T2, Recombinant human integrin αvβ1 (Homo sapiens, UniProt P05556+P06756).
T2 construct: purchased R&D Systems 6579-AV
Briefly: Solid Phase Receptor Assay (SPRA) for αVβ1 function. It counts as binding. As to conditions: plate-bound human fibronectin. Here is the method: B. Solid Phase Receptor Assay (SPRA) for αVβ1 Function
Wells were washed 3 times with 150 μL TBS+ and then 150 μL of blocking buffer (TBS+ with 1% bovine serum albumin, Sigma A7906) was added. The plate was incubated for 1 hr at 37° C. and then washed 3× with TBS+ buffer. […] Compounds were diluted to 20 μM and 1 μL was added to each well of the plate according to a standard template with each sample repeated in triplicate. After incubation for two hours at room temperature, the plate was washed 3× with 150 μL of TBS+ buffer. To each well, 50 μL of biotinylated anti-αV antibody (R&D Systems, BAF1219) at 1 μg/mL in TBS+/0.1% BSA were added and the plate covered and incubated for 1 hr at room temperature. After washing the plate 3× with 150 μL of TBS+ buffer, 50 μL of streptavidin-conjugated horseradish peroxidase (R&D Systems, DY998) diluted in TBS+ blocking buffer were added to the wells and the plate incubated for 20 min at room temperature. The plate was washed 3× with TBS+ buffer followed by 50 μL of TMB substrate (Sigma, T4444) added to each well in the dark and the plate incubated for 25 min at room temperature. 25 μL of 1.0 M phosphoric acid was added as a stop solution and the plates were read at 450 nm using a Spectramax plate reader.

Counter-ions that a name gives are not always drawn.

T2 sequence (P06756 31-992 limits assumed): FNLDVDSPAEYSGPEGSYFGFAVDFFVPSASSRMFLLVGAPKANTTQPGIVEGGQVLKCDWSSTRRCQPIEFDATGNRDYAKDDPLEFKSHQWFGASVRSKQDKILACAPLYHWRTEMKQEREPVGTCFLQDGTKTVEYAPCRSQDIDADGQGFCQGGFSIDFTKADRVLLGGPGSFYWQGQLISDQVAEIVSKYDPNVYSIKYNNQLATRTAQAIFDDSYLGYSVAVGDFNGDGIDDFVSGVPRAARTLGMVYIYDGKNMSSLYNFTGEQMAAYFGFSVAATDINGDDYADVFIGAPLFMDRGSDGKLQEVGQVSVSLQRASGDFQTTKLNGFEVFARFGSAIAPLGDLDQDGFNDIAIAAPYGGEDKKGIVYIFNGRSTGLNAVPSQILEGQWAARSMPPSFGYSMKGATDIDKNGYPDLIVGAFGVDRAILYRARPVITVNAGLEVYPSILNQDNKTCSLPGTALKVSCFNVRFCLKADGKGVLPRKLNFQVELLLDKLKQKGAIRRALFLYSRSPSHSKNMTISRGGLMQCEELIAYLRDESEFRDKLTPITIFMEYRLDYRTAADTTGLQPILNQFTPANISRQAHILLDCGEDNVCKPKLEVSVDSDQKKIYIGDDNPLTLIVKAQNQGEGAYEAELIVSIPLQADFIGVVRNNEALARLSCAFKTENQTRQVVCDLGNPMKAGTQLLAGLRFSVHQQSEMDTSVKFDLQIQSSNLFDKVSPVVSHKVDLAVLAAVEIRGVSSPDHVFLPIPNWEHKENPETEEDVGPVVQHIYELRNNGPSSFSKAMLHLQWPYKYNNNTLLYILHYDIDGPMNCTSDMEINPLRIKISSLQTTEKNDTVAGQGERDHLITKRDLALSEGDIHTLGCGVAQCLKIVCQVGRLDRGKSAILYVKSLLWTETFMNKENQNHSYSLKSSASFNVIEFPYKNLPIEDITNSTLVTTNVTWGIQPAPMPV
T2 sequence (P05556 21-728 limits assumed): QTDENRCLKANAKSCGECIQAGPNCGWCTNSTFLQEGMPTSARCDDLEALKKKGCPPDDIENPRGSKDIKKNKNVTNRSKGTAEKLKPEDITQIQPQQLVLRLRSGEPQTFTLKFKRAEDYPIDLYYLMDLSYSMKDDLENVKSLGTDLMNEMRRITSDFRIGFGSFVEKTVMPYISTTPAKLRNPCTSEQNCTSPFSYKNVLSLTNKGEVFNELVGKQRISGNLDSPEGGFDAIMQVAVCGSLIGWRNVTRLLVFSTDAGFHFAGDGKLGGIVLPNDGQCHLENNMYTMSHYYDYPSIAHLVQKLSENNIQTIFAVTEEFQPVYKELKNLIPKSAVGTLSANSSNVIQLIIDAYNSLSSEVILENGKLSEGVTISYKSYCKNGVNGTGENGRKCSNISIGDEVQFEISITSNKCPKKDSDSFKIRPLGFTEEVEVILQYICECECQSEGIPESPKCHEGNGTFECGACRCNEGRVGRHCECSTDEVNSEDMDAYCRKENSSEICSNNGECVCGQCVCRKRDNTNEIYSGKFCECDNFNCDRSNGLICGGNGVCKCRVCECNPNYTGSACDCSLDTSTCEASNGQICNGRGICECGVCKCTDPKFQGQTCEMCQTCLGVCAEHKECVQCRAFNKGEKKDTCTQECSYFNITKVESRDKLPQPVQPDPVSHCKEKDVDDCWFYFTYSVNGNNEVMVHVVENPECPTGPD
T1 sequence (P06756 31-992 limits assumed): as the sequence (P06756 31-992 limits assumed) above
T1 sequence (P18564 22-707 limits assumed): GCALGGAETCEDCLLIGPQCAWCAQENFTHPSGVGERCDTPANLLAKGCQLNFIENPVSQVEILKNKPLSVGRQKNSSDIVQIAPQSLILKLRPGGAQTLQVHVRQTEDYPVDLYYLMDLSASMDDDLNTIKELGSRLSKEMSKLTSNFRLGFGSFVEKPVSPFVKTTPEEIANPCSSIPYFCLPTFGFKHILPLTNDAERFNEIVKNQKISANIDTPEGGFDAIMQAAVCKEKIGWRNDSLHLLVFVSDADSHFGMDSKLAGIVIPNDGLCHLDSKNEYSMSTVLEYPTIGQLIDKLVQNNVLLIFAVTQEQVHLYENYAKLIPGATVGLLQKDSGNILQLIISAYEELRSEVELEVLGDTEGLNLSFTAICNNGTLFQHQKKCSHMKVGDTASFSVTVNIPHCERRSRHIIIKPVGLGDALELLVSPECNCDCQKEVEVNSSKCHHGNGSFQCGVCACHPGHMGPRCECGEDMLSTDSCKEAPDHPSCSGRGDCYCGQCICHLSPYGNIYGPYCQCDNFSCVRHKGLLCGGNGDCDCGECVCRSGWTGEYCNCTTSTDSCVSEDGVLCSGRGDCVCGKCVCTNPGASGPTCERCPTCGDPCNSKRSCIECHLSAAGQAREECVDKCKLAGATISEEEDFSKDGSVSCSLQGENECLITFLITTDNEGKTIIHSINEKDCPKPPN

With `Cn1nc(CC(CC(=O)O)c2cc(C(C)(C)C)ccc2F)cc1OCCc1ccc2c(n1)NCCC2` (stereo not drawn) [Example 19, 3-(5-(tert-butyl)-2-fluorophenyl)-4-(1-methyl-5-(2-(5,6,7,8-tetrahydro-1,8-naphthyridin-2-yl)ethoxy)-1H-pyrazol-3-yl)butanoic acid], the IC50 in assay [1] was determined as 180 nM; in assay [2], 7 nM.

Consider `Cn1nc(CC(CC(=O)O)c2cc(C(C)(C)C)ccc2OC(F)(F)F)cc1OCCc1ccc2c(n1)NCCC2` (stereo not drawn) [Example 20, 3-(5-(tert-butyl)-2-(trifluoromethoxy)phenyl)-4-(1-methyl-5-(2-(5,6,7,8-tetrahydro-1,8-naphthyridin-2-yl)ethoxy)-1H-pyrazol-3-yl)butanoic acid], for which the IC50 in assay [1] amounted to 220 nM; in assay [2] it was 6 nM.

For the compound `COc1ccc(C2(C(F)F)CC2)cc1C(CC(=O)O)Cc1cc(OCCc2ccc3c(n2)NCCC3)n(C)n1` (stereo not drawn) [Example 21, 3-[5-[1-(difluoromethyl)cyclopropyl]-2-methoxy-phenyl]-4-[1-methyl-5-[2-(5,6,7,8-tetrahydro-1,8-naphthyridin-2-yl)ethoxy]pyrazol-3-yl]butanoic acid], the IC50 turned out to be 320 nM in assay [1] and 10 nM in assay [2].

`COc1ccc(C(C)(C)O)cc1C(CC(=O)O)Cc1cc(OCCc2ccc3c(n2)NCCC3)n(C)n1` (stereo not drawn) [Example 22, 3-(5-(2-hydroxypropan-2-yl)-2-methoxyphenyl)-4-(1-methyl-5-(2-(5,6,7,8-tetrahydro-1,8-naphthyridin-2-yl)ethoxy)-1H-pyrazol-3-yl)butanoic acid]: the IC50 turned out to be 160 nM in assay [1] and 3 nM in assay [2].

With `COc1ccc(C2COC2)cc1C(CC(=O)O)Cc1cc(OCCc2ccc3c(n2)NCCC3)n(C)n1` (stereo not drawn) [Example 23, 3-[2-methoxy-5-(oxetan-3-yl)phenyl]-4-[1-methyl-5-[2-(5,6,7,8-tetrahydro-1,8-naphthyridin-2-yl)ethoxy]pyrazol-3-yl]butanoic acid], the IC50 in assay [1] worked out at 140 nM; in assay [2], 8 nM.

Turning to `COc1ccc(S(F)(F)(F)(F)F)cc1C(CC(=O)O)Cc1cc(OCCc2ccc3c(n2)NCCC3)n(C)n1` (stereo not drawn) [Example 24, 3-[2-methoxy-5-(pentafluoro-sulfanyl)phenyl]-4-[1-methyl-5-[2-(5,6,7,8-tetrahydro-1,8-naphthyridin-2-yl)ethoxy]pyrazol-3-yl]butanoic acid], the IC50 in assay [1] turned out to be 48 nM; in assay [2], 9 nM.

With `COc1c(C(C)C)cc(C(CC(=O)O)Cc2cc(OCCc3ccc4c(n3)NCCC4)n(C)n2)cc1C(C)C` (stereo not drawn) [Example 25, 3-(3,5-diisopropyl-4-methoxy-phenyl)-4-[1-methyl-5-[2-(5,6,7,8-tetrahydro-1,8-naphthyridin-2-yl)ethoxy]pyrazol-3-yl]butanoic acid], the IC50 stood at 160 nM in assay [1] and 6 nM in assay [2].

Take `COc1c(C(C)C)cc(C(CC(=O)O)Cc2csc(CCCc3ccc4c(n3)NCCC4)n2)cc1C(C)C` (stereo not drawn) [Example 26, 3-(3,5-diisopropyl-4-methoxy-phenyl)-4-[2-[3-(5,6,7,8-tetrahydro-1,8-naphthyridin-2-yl)propyl]thiazol-4-yl]butanoic acid]: the IC50 in assay [1] came to 330 nM; in assay [2] it was 8 nM.

Take `CC(C)(C)c1cc(C(CC(=O)O)Cc2csc(CCCc3ccc4c(n3)NCCC4)n2)cc(C(C)(C)C)c1` (stereo not drawn) [Example 27, 3-(3,5-di-tert-butylphenyl)-4-(2-(3-(5,6,7,8-tetrahydro-1,8-naphthyridin-2-yl)propyl)thiazol-4-yl)butanoic acid]: the half-inhibitory concentration (IC50) in assay [1] amounted to 1000 nM; in assay [2] it was 11 nM.

Regarding `COc1ccc(C(C)(C)C)cc1C(CC(=O)O)Cc1csc(CCCc2ccc3c(n2)NCCC3)n1` (stereo not drawn) [Example 28, 3-(5-(tert-butyl)-2-methoxyphenyl)-4-(2-(3-(5,6,7,8-tetrahydro-1,8-naphthyridin-2-yl)propyl)thiazol-4-yl)butanoic acid], the figures for the IC50 in assay [1] and in assay [2] were 310 nM and 6 nM, respectively.

In the case of `COc1c(C(C)(C)C)cc(C(CC(=O)O)Cc2csc(CCCc3ccc4c(n3)NCCC4)n2)cc1C(C)(C)C` (stereo not drawn) [Example 29, 3-(3,5-di-tert-butyl-4-methoxyphenyl)-4-(2-(3-(5,6,7,8-tetrahydro-1,8-naphthyridin-2-yl)propyl)thiazol-4-yl)butanoic acid], the IC50 in assay [1] turned out to be 450 nM; in assay [2], 7 nM.

As for `CC(C)(C)c1cc(C(CC(=O)O)Cc2csc(CCCc3ccc4c(n3)NCCC4)n2)cc(C2(C(F)F)CC2)c1` (stereo not drawn) [Example 30, 3-[3-tert-butyl-5-[1-(difluoromethyl)cyclopropyl]phenyl]-4-[2-[3-(5,6,7,8-tetrahydro-1,8-naphthyridin-2-yl)propyl]thiazol-4-yl]butanoic acid], the IC50 in assay [1] is 270 nM; in assay [2], 5 nM.

As for `CC(C)(C)c1cc(C(CC(=O)O)Cc2csc(CCCc3ccc4c(n3)NCCC4)n2)cc(C(C)(C)C(F)(F)F)c1` (stereo not drawn) [Example 31, 3-[3-tert-butyl-5-(2,2,2-trifluoro-1,1-dimethyl-ethyl)phenyl]-4-[2-[3-(5,6,7,8-tetrahydro-1,8-naphthyridin-2-yl)propyl]thiazol-4-yl]butanoic acid], the IC50 in assay [1] was determined as 1700 nM; in assay [2] it was 8 nM.

In the case of `COCC1(c2cc(C(CC(=O)O)Cc3csc(CCCc4ccc5c(n4)NCCC5)n3)cc(C(C)(C)C)c2)CCOCC1` (stereo not drawn) [Example 32, 3-[3-tert-butyl-5-[4-(methoxymethyl)tetrahydropyran-4-yl]phenyl]-4-[2-[3-(5,6,7,8-tetrahydro-1,8-naphthyridin-2-yl)propyl]thiazol-4-yl]butanoic acid], the figures for the IC50 in assay [1] and in assay [2] were 130 nM and 7 nM, respectively.

With `CC(C)(C)c1ccc(C#N)c(C(CC(=O)O)Cc2csc(CCCc3ccc4c(n3)NCCC4)n2)c1` (stereo not drawn) [Example 33, 3-(5-tert-butyl-2-cyano-phenyl)-4-[2-[3-(5,6,7,8-tetrahydro-1,8-naphthyridin-2-yl)propyl]thiazol-4-yl]butanoic acid], the IC50 was 150 nM in assay [1] and 2 nM in assay [2].

As to `CC(C)(C)c1ccc(Br)c(C(CC(=O)O)Cc2csc(CCCc3ccc4c(n3)NCCC4)n2)c1` (stereo not drawn) [Example 34], the IC50 in assay [1] is 3400 nM; in assay [2] it was 4 nM.

Take `COc1ccc(C(F)(F)F)cc1C(CC(=O)O)Cc1csc(CCCc2ccc3c(n2)NCCC3)n1` (stereo not drawn) [Example 35, 3-[2-methoxy-5-(trifluoromethyl)phenyl]-4-[2-[3-(5,6,7,8-tetrahydro-1,8-naphthyridin-2-yl)propyl]thiazol-4-yl]butanoic acid]: the results for the 50% inhibitory concentration (IC50) in assay [1] and in assay [2] were 200 nM and 5 nM, respectively.

As to `COc1ccc(C2(C(F)F)CC2)cc1C(CC(=O)O)Cc1csc(CCCc2ccc3c(n2)NCCC3)n1` (stereo not drawn) [Example 36, 3-(5-(1-(difluoromethyl)cyclopropyl)-2-methoxyphenyl)-4-(2-(3-(5,6,7,8-tetrahydro-1,8-naphthyridin-2-yl)propyl)thiazol-4-yl)butanoic acid], the IC50 in assay [1] stood at 120 nM; in assay [2], 2 nM.

`COc1ccc(C2=CCOCC2)cc1C(CC(=O)O)Cc1csc(CCCc2ccc3c(n2)NCCC3)n1` (stereo not drawn) [Example 37, 3-[5-(3,6-dihydro-2H-pyran-4-yl)-2-methoxy-phenyl]-4-[2-[3-(5,6,7,8-tetrahydro-1,8-naphthyridin-2-yl)propyl]thiazol-4-yl]butanoic acid]: the values for the IC50 in assay [1] and in assay [2] were 81 nM and 3 nM, respectively.

Regarding `COc1ccc(C2=CCOCC2)cc1[C@H](CC(=O)O)Cc1csc(CCCc2ccc3c(n2)NCCC3)n1` [Example 37A, (S)-3-(5-(3,6-dihydro-2H-pyran-4-yl)-2-methoxyphenyl)-4-(2-(3-(5,6,7,8-tetrahydro-1,8-naphthyridin-2-yl)propyl)thiazol-4-yl)butanoic acid trifluoroacetate], the IC50 in assay [1] was found to be 31 nM; in assay [2], 0.9 nM.

On to `COc1ccc(C2=CCOCC2)cc1[C@@H](CC(=O)O)Cc1csc(CCCc2ccc3c(n2)NCCC3)n1` [Example 37B, (R)-3-(5-(3,6-dihydro-2H-pyran-4-yl)-2-methoxyphenyl)-4-(2-(3-(5,6,7,8-tetrahydro-1,8-naphthyridin-2-yl)propyl)thiazol-4-yl)butanoic acid trifluoroacetate], for which the IC50 worked out at 3000 nM in assay [1] and 190 nM in assay [2].
